Experimental data as given in a melting point compilation (Tetko et al.; mined from patent text by program, amines drawn as free bases though some values may be those of a salt).

SMILES | melting point
CC(C(=O)O)c1ccc2cc(OCC=C(Cl)Cl)ccc2c1 (stereo not given) | 107 to 109 °C
OC1CN(Cc2nc(-c3ccc4c(c3)Nc3ccccc3S4)cs2)C1 | 240 to 242 °C
COc1nc2cc(C)c(C)c(NS(C)(=O)=O)c2nc1OC | 219 °C
Cc1cccc(C)c1NC(=S)N1CC(Oc2cccc(C(F)(F)F)c2)C1 | 197 to 199 °C
CCC(O)c1cc2cc(O)c(Cl)c(Cl)c2s1 (stereo not given) | 145 to 146 °C
CCCCN(C1CCCOc2c(C)cc(Cl)cc21)S(=O)(=O)CC (stereo not given) | 83 to 87 °C
CCC(NC(Cc1cccnc1C)=NC#N)c1ccccc1 (stereo not given) | 52 to 54 °C
ClCc1coc(-c2sccc2Cl)n1 | 84 to 85 °C
Cc1ccc(S(=O)(=O)NC(=O)C(C)(N)C(C)C)cc1 (stereo not given) | 262 to 265 °C
CCOC(=O)/C=C/c1cc(C(C)C)c(OC(C)=O)c2c(C)cccc12 | 122 to 123 °C
NC(=O)C1CCc2cc(S(=O)(=O)Cl)ccc2O1 (stereo not given) | 147 to 148 °C
CNC1(c2ccccc2Cl)C(=O)Nc2c(F)cc(Cl)cc21 (stereo not given) | 219 °C
O=S(=O)(c1ccc(Cl)cc1)N(Cc1ccc(OC2CCOCC2)nc1)C1CCOCC1 | 123 to 125 °C
CCOC(=O)c1ncc2[nH]c3ccc(-c4ccccc4)cc3c2c1C | 241 to 242 °C
COc1nc2c(OCc3ccccc3)cccc2n1C | 98 to 102 °C
COc1cc2oc(=O)c3c(c2cc1NC(C)=O)CCN(CC(C)=O)C3 | 210 to 215 °C
CC(C)Nc1cccnc1N1CCN(C(=O)c2ccc(C(=O)NCCCO)cc2)CC1 | 110 to 111 °C
CC(C)c1ccccc1Sc1c(O)cc(-c2ccc(OCC3CCCCC3)cc2)oc1=O | 187 to 188 °C
Nc1cc(Cl)ccc1-n1cccc1 | 89 to 90 °C
CCCCNCCNC(=O)Nc1ccccc1C(=O)NCC1CCN(C(c2ccccc2)c2ccccc2)CC1 | 148 to 150 °C
COc1ccc(-c2ccc3c(c2)C=C(C(=O)Nc2ccc(CN(C)C4CCOCC4)cc2)CCS3(=O)=O)cc1 | 247 to 249 °C
Cc1ccc(Nc2cc(C)nc(-n3nc(C)cc3C)n2)cc1 | 135 to 138 °C
CCCCC1(N(C)C)CCC2(CC1)c1[nH]c3ccccc3c1CCN2C(=O)NCC (stereo not given) | 182 to 184 °C
CC1CCC(C(C)C)C(OC(=O)CCC(=O)OC2CC(C)CCC2C(C)C)C1 (single isomer, unassigned; (-)) | 61 to 62 °C

SMILES | melting point
O=C1OC(CN2CCC3(CC2)C(=O)NCN3c2ccccc2)CN1c1ccccc1 (stereo not given) | 166 to 168 °C
N#Cc1cc(Cl)c(F)cc1F | 48 to 50 °C
COc1cc(OC)c(NC(=O)[C@H](Cc2ccc(OCc3ccccc3)cc2)NC(=O)OC(C)(C)C)c(OC)c1 | 89 to 95 °C
CC(C)N1CCC(NC(=O)Nc2ccccc2CCc2cc(C(C)(C)C)c(O)c(C(C)(C)C)c2)CC1 | 191 to 193 °C
O=C(O)CCCSC=CS(=O)(=O)CCCC(=O)O | 120 °C
O=c1oc(-c2cccc(-c3ccccc3)c2)cc(O)c1SCCc1ccccc1 | 93 to 94 °C
Cc1cnc2c(NC(=O)c3c(Cl)cccc3Cl)ccc(Br)c2c1 | 238 to 239 °C
C[Si](C)(C)NC(=O)C(Cl)(Cl)Cl | 75 to 85 °C
COc1nc(I)cc(C(O)C(C)(C)C)c1C (stereo not given) | 64 to 65 °C
COc1cc2c(cc1OCc1ccccc1)C1Cc3c(Cl)cc(OC)c(OC(=O)c4ccccc4)c3CN1CC2 (stereo not given) | 170 to 172 °C
Cc1ccc(S(=O)(=O)OC[C@H](O)c2ccc(OCc3ccccc3)cc2)cc1 | 91 to 92 °C
O=C(O)CCc1nc(-c2ccccc2)cc2ccccc12 | 160 °C
CN1C(=O)C2(COc3cc4c(cc32)OCCO4)c2c(Oc3ncccc3C(F)(F)F)cccc21 (stereo not given) | > 250 °C
Cc1cc(-c2ccc(C(F)(F)F)c(C)c2)nc(-c2cccc(-c3cccc(S(N)(=O)=O)c3)c2)n1 | 222 °C
O=C(O)C(=O)c1ccc(OCCOc2ccc(Cl)cc2)cc1 | 121 to 122 °C
Cc1cc(-n2ccc(OCCc3ccccc3)cc2=O)sc1C(=O)NCc1ccccc1 | 159 to 160 °C
Cc1c(-c2ccccc2)n(-c2ccccc2)c(-c2ccc(C#N)cc2)cc1=O | 229 to 233 °C
CCC(=O)c1cc(C#N)c(=O)[nH]c1C | 259 to 263 °C
O=C1NCc2c1cc1ccc3c(c1c2-c1ccc2c(c1)OCO2)OCC3 | 275 to 277 °C
CC(C)(C)c1cc(SCCSCC(=O)O)cc(C(C)(C)C)c1O | 86 °C
CC(C)OC(=O)Cc1nc(-c2ccc(F)cc2)oc1-c1ccsc1 | 108 to 110 °C
CCCCCCCCCCOc1ccc(C(=O)OCC(=O)OC)cc1 | 30 to 32 °C
CC1(c2cccc(Cl)c2)OC(C(=O)O)Oc2ccc(Cl)cc21 (stereo not given) | 131 °C
CC(C)(C)n1ncc(OCc2ccc(OCC(F)(F)C(F)F)nc2)c(Cl)c1=O | 112 to 118 °C

SMILES | melting point
Cc1ccc(C2SC3(CCN(CCCC(=O)c4ccc(F)cc4)CC3)c3ccccc32)cc1 (stereo not given) | 134 to 135 °C
CC(C)Oc1cccc(-c2ccc3cnc(Nc4ccc(C5CCN(CC(N)=O)CC5)cc4)nn23)c1 | 233 to 235 °C
COCn1c(-c2ccncc2)c(C)c(CO)c1-c1ccncc1 | 181 to 183 °C
CCOC(=O)CCSc1nnsc1-c1ccc(F)cc1 | 76.5 to 77.5 °C
Cc1cc(-c2ccc(S(C)(=O)=O)cc2)n(-c2ccc(F)cc2)c1Br | 158 to 159 °C
Cc1c(=O)n(Cc2ccc(C(=O)OC(C)(C)C)cc2)c(=O)n2ccsc12 | 163 to 165 °C
COc1cc2c(Nc3ccc(Cl)cc3F)ncnc2cc1OCc1ccnc(Br)c1 | 210 to 212 °C
C[C@@H](O)c1nccc(N2CCn3c(nnc3-c3nc4ccccc4s3)C2)n1 | 216 to 218 °C
NC(=O)C1=C(S(=O)Cc2ccccc2)CCC1 (stereo not given) | 174 °C
N#Cc1ccc2cc(-c3ccc(O)cc3)oc2c1 | 272 to 274 °C
CC(C)n1nc(-c2c(OC3CCCCC3)nc(N)nc2-c2ccccc2)ccc1=O | 173 to 175 °C
COCc1cccc2oc(C(=O)Nc3ccc(-c4ccc(S(=O)(=O)N(C)C(C(=O)O)C(C)C)cc4)cc3)c(C)c12 (stereo not given) | 144 to 146 °C
O=C(CCCN1CCN(c2ccccc2Cl)CC1)N1CCc2ccccc21 | 119 to 121 °C
COC(=O)Oc1ccc(F)cc1Br | 75 to 78 °C
CCOC(=O)Cc1ccc(CCN2CCN(C(=O)C=Cc3cc(C(C)(C)C)c(O)c(C(C)(C)C)c3)CC2)cc1 | 111 to 113 °C
Cc1cc(F)c(-n2ccc(O)n2)cc1SCC(F)(F)F | 166 to 168 °C
COc1ccc(S(=O)(=O)C(CC(=O)NO)Cc2ccc(Oc3ccccc3)cc2)cc1 (stereo not given) | 65 to 70 °C
[O-][N+](O)=CCN=Nc1ccccc1 | 95 to 97 °C
Nc1cc(CNc2ccccc2C(=O)Nc2cccc(C(F)(F)F)c2)ccn1 | 64 °C
CCOC(=O)N1CC[C@@H](N2C(=O)c3ccccc3C2=O)[C@H](O)C1 (relative stereo) | 128 °C
COc1cc2c(-c3cc4cc(F)cnc4[nH]3)cn(CCN3CCOCC3)c2cc1OC | 205 to 210 °C
CC(CCCC(C)(C)O)C1CCC2C3CC=C4CCCC(O)C4(C)C3CCC12C (stereo not given) | 127 to 128 °C
